In PMC10999543, “Identification of kinase modulators as host-directed therapeutics against intracellular methicillin-resistant Staphylococcus aureus” (Frontiers in Cellular and Infection Microbiology, 2024):
Read-outs that look alike come from different tables or passages of the source.

How the values were obtained:
HER2 = test system: HER2; parameters: method as in Elkins et al., 2016; conditions: PKIS1, Caliper assay, ref Elkins et al., 2016; cited from earlier work
EGFR = test system: EGFR; parameters: method as in Elkins et al., 2016; conditions: PKIS1, Caliper assay, ref Elkins et al., 2016; cited from earlier work
HER4 = test system: HER4; parameters: method as in Elkins et al., 2016; conditions: PKIS1, Caliper assay, ref Elkins et al., 2016; cited from earlier work
intracellular MRSA = type: cell-based, Staphylococcus aureus; conditions: for %GFP+ rep 1 / z-scoreMRSA+ rep 1: replicate 1; for %GFP+ rep 2 / z-scoreMRSA+ rep 2: replicate 2; for %GFP+ rep 3 / z-scoreMRSA+ rep 3: replicate 3; for z-scoreMRSA+ mean: mean of 3 replicates; for z-score GFP+: flow cytometry screen, 10 µM, HeLa cells
Procedure, shortened: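 HeLa, MRSA-GFP at MOI ~6.8, 1 h infection; gentamicin 30 µg/ml for 15 min; inhibitor plus gentamicin 5 µg/ml overnight, 37°C/5% CO2; triplicate plates; FACS %GFP+ and cell count; hit = z ≤ -2 MRSA+, z ≥ -3 count.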

[1] = test system: intracellular MRSA in HeLa cells; assay: Gentamicin protection assay with CFU count in MRSA-infected HeLa cells; type: cell-based, Staphylococcus aureus; conditions: 10 µM, MRSA-infected HeLa cells
Procedure: The cells were resuspended in cell culture medium without antibiotics, seeded with 10,000 cells/well into Costar flat-bottom 96-well plates (Corning, Amsterdam, the Netherlands), and were incubated overnight at 37°C/5% CO2. The next day, the bacteria were centrifuged at ≥1800 g for 15 min and resuspended in cold PBS + 5 mM ethylenediaminetetraacetic acid (EDTA). The number of CFUs present in the bacterial suspension was estimated from the optical density at 600 nm (OD600) by assuming 8x10^8 CFUs to be present in a bacterial suspension with OD600 = 1, based on prior titrations. The bacterial suspension was diluted in cell culture medium without antibiotics and added to the cells. Accuracy of the multiplicity of infection (MOI) was validated by plating serial dilutions of the MRSA inoculums on Difco TS agar plates (BD Biosciences). The calculated mean MOI throughout all experiments was 6.8 ± 4.6 (mean ± SD). Infected cells were centrifuged for 3 min at 150 g and incubated for 1 hour at 37°C/5% CO2. Next, the cells were incubated with fresh cell culture medium supplemented with 30 µg/ml gentamicin sulphate (Lonza BioWhittaker, Basel, Switzerland) for 15 min at 37°C/5% CO2 to kill residual extracellular bacteria. Infected cells were incubated overnight at 37°C/5% CO2 in cell culture medium in the presence of kinase inhibitors and 5 µg/ml gentamicin sulphate-containing medium to prevent the growth of extracellular bacteria. The solvent of the compounds, DMSO, was used at equal % v/v as a negative control. For the screen, each compound was tested in triplicate, on separate cell culture plates, resulting in triplicate values for each kinase inhibitor.
Infected cells were lysed in sterile water + 0.05% UltraPure SDS solution (Invitrogen, ThermoFisher Scientific) to release intracellular bacteria. Bacterial suspensions and lysates of cells infected with MRSA were 5-fold serially diluted and 10-μl drops were plated on square TS agar plates. The plates were left to dry and incubated overnight at 37°C/5% CO2.

HeLa cells = assay: Compound screen by flow cytometry: HeLa cell count as surrogate readout of cell viability (z-scoreHeLa); type: cell-based, human; conditions: for cell count rep 1 / z-scoreHeLa rep 1: replicate 1; for cell count rep 2 / z-scoreHeLa rep 2: replicate 2; for cell count rep 3 / z-scoreHeLa rep 3: replicate 3; for z-scoreHeLa mean: mean of 3 replicates
Procedure, shortened: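 HeLa cells were infected with GFP-MRSA (mean MOI 6.8 ± 4.6) for 1 h, and extracellular bacteria were killed with 30 µg/ml gentamicin. Cells were then incubated overnight with kinase inhibitors in 5 µg/ml gentamicin, in triplicate against DMSO controls. Flow-cytometric cell count served as a viability surrogate, expressed as a plate z-score.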

[2] = PKIS compound screen raw data, MRSA-infected HeLa cells
[3] = PKIS compound screen, MRSA-infected HeLa cells
[4] = PKIS compound screen, Yes/No call
[5] = PKIS compound screen, Yes/No call (effect without cell death)
[6] = PKIS compound screen, Yes/No call on z-scoreMRSA+
[7] = PKIS compounds raw data, MRSA-infected HeLa cells
[8] = PKIS compound screen raw data, HeLa cell count
[9] = PKIS compound screen, HeLa cell count
[10] = PKIS compound screen, Yes/No call on z-scoreHeLa
[11] = PKIS compounds raw data, HeLa cell count
[12] = Yes/No: effect without cell death
[13] = compound screen, MRSA-infected HeLa cells
[14] = compound screen, HeLa cell count

SMILES	% inhibition at 1 µM HER2 (HER2) [%]	% inhibition at 1 µM EGFR (EGFR) [%]	% inhibition at 1 µM HER4 (HER4) [%]	effect (intracellular MRSA; [4])	hit (intracellular MRSA; [5])	z-scoreMRSA+ mean (intracellular MRSA; PKIS compound screen)	z-scoreMRSA+ rep 1 (intracellular MRSA; PKIS compound screen)	z-scoreMRSA+ rep 2 (intracellular MRSA; PKIS compound screen)	z-scoreMRSA+ rep 3 (intracellular MRSA; PKIS compound screen)	%GFP+ rep 1 (intracellular MRSA; [7]) [%]	%GFP+ rep 2 (intracellular MRSA; [7]) [%]	%GFP+ rep 3 (intracellular MRSA; [7]) [%]	CFU (% of DMSO) at 10 µM [1]	cell death (HeLa cells; [4])	z-scoreHeLa mean (HeLa cells; PKIS compound screen)	z-scoreHeLa rep 1 (HeLa cells; PKIS compound screen)	z-scoreHeLa rep 2 (HeLa cells; PKIS compound screen)	cell count rep 1 (HeLa cells; [11])	cell count rep 2 (HeLa cells; [11])	cell count rep 3 (HeLa cells; [11])	also measured
CS(=O)(=O)CCNCc1ccc(-c2ccc3ncnc(Nc4ccc(OCc5ccccc5)c(Cl)c4)c3c2)o1 [GW574783B]	75	91	89	Yes	No and Yes	-2.62	-2.66	-2.54	-2.65	13.4	12.8	13.0	53.4 % of DMSO	No	1.91	1.69	1.91	8853	8889	8965	%GFP+ rep 1 (intracellular MRSA; [2]): 11.2%; %GFP+ rep 2 (intracellular MRSA; [2]): 11.2%; %GFP+ rep 3 (intracellular MRSA; [2]): 14.4%; z-scoreMRSA+ mean (intracellular MRSA; [3]): -1.99; z-scoreMRSA+ rep 1 (intracellular MRSA; [3]): -2.11; z-scoreMRSA+ rep 2 (intracellular MRSA; [3]): -2.20; z-scoreMRSA+ rep 3 (intracellular MRSA; [3]): -1.64; effect (intracellular MRSA; [6]): No; z-score GFP+ (intracellular MRSA): -2.30; cell count rep 1 (HeLa cells; [8]): 17891; cell count rep 2 (HeLa cells; [8]): 35533; cell count rep 3 (HeLa cells; [8]): 50424; z-scoreHeLa mean (HeLa cells; [9]): 0.46; z-scoreHeLa rep 1 (HeLa cells; [9]): -0.34; z-scoreHeLa rep 2 (HeLa cells; [9]): 0.14; z-scoreHeLa rep 3 (HeLa cells; [9]): 1.58; cell death (HeLa cells; [10]): No; z-scoreHeLa rep 3 (HeLa cells; PKIS compound screen): 2.13
[O-][S+]1CCN(Cc2ccc(-c3ccc4ncnc(Nc5ccc(OCc6cccc(F)c6)c(Cl)c5)c4c3)o2)CC1 [GW576609A]	80	84	91	–	No	–	–	–	–	–	–	–	–	–	–	–	–	–	–	–	%GFP+ rep 1 (intracellular MRSA; [2]): 13.3%; %GFP+ rep 2 (intracellular MRSA; [2]): 14.3%; %GFP+ rep 3 (intracellular MRSA; [2]): 14.3%; z-scoreMRSA+ mean (intracellular MRSA; [3]): -1.46; z-scoreMRSA+ rep 1 (intracellular MRSA; [3]): -1.45; z-scoreMRSA+ rep 2 (intracellular MRSA; [3]): -1.27; z-scoreMRSA+ rep 3 (intracellular MRSA; [3]): -1.67; effect (intracellular MRSA; [6]): No; cell count rep 1 (HeLa cells; [8]): 27921; cell count rep 2 (HeLa cells; [8]): 36007; cell count rep 3 (HeLa cells; [8]): 40876; z-scoreHeLa mean (HeLa cells; [9]): 0.49; z-scoreHeLa rep 1 (HeLa cells; [9]): 1.18; z-scoreHeLa rep 2 (HeLa cells; [9]): 0.23; z-scoreHeLa rep 3 (HeLa cells; [9]): 0.0554; cell death (HeLa cells; [10]): No
[O-][S+]1CCN(Cc2ccc(-c3ccc4ncnc(Nc5ccc(OCc6ccccc6)c(F)c5)c4c3)o2)CC1 [GW576924A]	91	82	75	Yes	Yes	-2.35	-1.94	-2.43	-2.70	7.1	6.2	6.8	137.9 % of DMSO	No	-0.58	-1.18	-0.60	3467	3479	7054	z-score GFP+ (intracellular MRSA): -2.36; z-scoreHeLa rep 3 (HeLa cells; PKIS compound screen): 0.0442
CS(=O)(=O)CCNCc1ccc(-c2ccc3ncnc(Nc4ccc(OCc5ccccc5)c(Br)c4)c3c2)o1 [GW580496A]	74	82	80	–	–	–	–	–	–	5.4	6.0	5.1	65.3 % of DMSO	–	–	–	–	5658	6483	11366	effect (intracellular MRSA; Yes/No call from z-scoreMRSA+): Yes; hit (intracellular MRSA; [12]): Yes; z-scoreMRSA+ mean (intracellular MRSA; [13]): -2.73; z-scoreMRSA+ rep 1 (intracellular MRSA; [13]): -2.50; z-scoreMRSA+ rep 2 (intracellular MRSA; [13]): -2.51; z-scoreMRSA+ rep 3 (intracellular MRSA; [13]): -3.18; cell death (HeLa cells; Yes/No call from z-scoreHeLa): No; z-scoreHeLa mean (HeLa cells; [14]): 1.53; z-scoreHeLa rep 1 (HeLa cells; [14]): 0.80; z-scoreHeLa rep 2 (HeLa cells; [14]): 1.67; z-scoreHeLa rep 3 (HeLa cells; [14]): 2.11
O=S(=O)(CCOCc1ccc(-c2ccc3ncnc(Nc4ccc(OCc5cccc(F)c5)c(Cl)c4)c3c2)o1)c1ccccc1 [GW615311X]	70	85	73	–	–	–	–	–	–	14.3	12.7	13.9	–	–	–	–	–	4217	4665	7934	effect (intracellular MRSA; Yes/No call from z-scoreMRSA+): No; hit (intracellular MRSA; [12]): No; z-scoreMRSA+ mean (intracellular MRSA; [13]): -0.16; z-scoreMRSA+ rep 1 (intracellular MRSA; [13]): 0.36; z-scoreMRSA+ rep 2 (intracellular MRSA; [13]): -0.27; z-scoreMRSA+ rep 3 (intracellular MRSA; [13]): -0.59; cell death (HeLa cells; Yes/No call from z-scoreHeLa): No; z-scoreHeLa mean (HeLa cells; [14]): 0.09; z-scoreHeLa rep 1 (HeLa cells; [14]): -0.51; z-scoreHeLa rep 2 (HeLa cells; [14]): 0.30; z-scoreHeLa rep 3 (HeLa cells; [14]): 0.47
CS(=O)(=O)CCN(CC#N)Cc1ccc(-c2ccc3ncnc(Nc4ccc(OCc5cccc(F)c5)c(Cl)c4)c3c2)o1 [GW616030X]	67	77	74	–	–	–	–	–	–	7.5	7.4	6.2	50.3 % of DMSO	–	–	–	–	2826	3932	5918	effect (intracellular MRSA; Yes/No call from z-scoreMRSA+): Yes; hit (intracellular MRSA; [12]): Yes; z-scoreMRSA+ mean (intracellular MRSA; [13]): -2.24; z-scoreMRSA+ rep 1 (intracellular MRSA; [13]): -1.82; z-scoreMRSA+ rep 2 (intracellular MRSA; [13]): -2.03; z-scoreMRSA+ rep 3 (intracellular MRSA; [13]): -2.88; cell death (HeLa cells; Yes/No call from z-scoreHeLa): No; z-scoreHeLa mean (HeLa cells; [14]): -0.84; z-scoreHeLa rep 1 (HeLa cells; [14]): -1.76; z-scoreHeLa rep 2 (HeLa cells; [14]): -0.25; z-scoreHeLa rep 3 (HeLa cells; [14]): -0.50
CCCN(CCS(C)(=O)=O)Cc1ccc(-c2ccc3ncnc(Nc4ccc(OCc5cccc(F)c5)c(Cl)c4)c3c2)o1 [GW621823A]	82	78	79	Yes	Yes	-2.21	-2.10	-1.86	-2.67	6.6	7.9	6.9	68.4 % of DMSO	No	0.59	0.17	0.58	4961	5042	9090	z-scoreHeLa rep 3 (HeLa cells; PKIS compound screen): 1.02
